According to patent publication US10517862B2, “Fused heterocyclic compound derivative and application thereof” (NHWA PHARMA. CORPORATION, priority 2015, dated 2019):
Read-outs that look alike come from different tables or passages of the source.

Assays:
D2 receptor = D2 receptor binding assay (3H-Spiperone, rat striatum membrane); settings: test compound final concentration 10^−5 M; 3H-Spiperone; rat striatum membrane
Protocol: Preparation of D2 Membrane
Rats were decapitated on ice. […] The weight of the homogenized tubes were adjusted using a balance, and centrifugation was conducted. […] Centrifugation was conducted.
(§1) Materials for the Receptor Binding Assay

mice of Kunming breed [1] = test: Apomorphine induced clambering assay of mice; format: in vivo; settings: for ED50: Mus musculus, read-out: Apomorphine induced clambering (ED50, po, mg/kg)
Protocol: Healthy mice of Kunming breed (KM) (male, with body weight of 18-22 g) were provided by Qinglongshan Animal Cultivation Center, Nanjing.
Apomorphine provided by Sigma Company was dissolved in 0.9% NaCl (containing 0.1% vitamin C) before use, and was freshly formulated before use.
Vitamin C, F20061113, was provided by Sinopharm Chemical Reagent Co. Ltd.
Sodium chloride injection, H32026305, was provided by Xuzhou No. 5 Pharmaceutical Factory Co. Ltd.
Instruments: self-made clambering cage, chronograph.
Procedures: apomorphine induced clambering assay of mice
After 5 min of adaptation, the behavior of the mice at 10-11, 20-21, and 30-31 min after the injection of apomorphine were observed and scored. Scoring criteria: the behavior of 4 paws on the floor was scored as 0; the behavior of 2 forepaws on the cage was scored as 1; and the behavior of 4 paws on the cage was scored as 2.

mice of Kunming breed [2] = test: MK-801 induced high activity in mice; format: in vivo; settings: Mus musculus, 1.5 h, po, MK-801 0.1 mg/kg ip, spontaneous activities in 90 min
Protocol: Example 54: MK-801 Induced High Activity—the In Vivo Anti-Schizophrenia Activity of the Compounds
Healthy mice of Kunming breed (with half male and half female, (20±2) g) were provided by Qinglongshan Animal Cultivation Center, Nanjing.
Ascorbic acid was provided by Sinopharm Chemical Reagent Co. Ltd.
MK-801 was produced by Sigma Company, USA; the formulation method: 0.1% vitamin C was used to formulate a 1 mg/ml solution.
Test positive drugs: haloperidol, clozapine, risperidone, olanzapine, aripiprazole, ziprasidone, quetiapine.
Tween 80, with the concentration of 10%.
Mice with qualified body weight were selected, and randomly divided into blank group, model group, positive control group (risperidone group) and drug group. […] 1 h after the administration, 0.1% concentration of ascorbic acid was intraperitoneally injected to the blank group at 0.1 ml/10 g; and the model group, the positive control group (30 min) and the drug group were intraperitoneally injected the MK-801 solution at 0.1 mg/kg. Subsequently, the spontaneous activities of the mice of each group in 90 min were measured.

5HT1A receptor = biological target: T1, 5HT1A receptor (Rattus norvegicus, UniProt P19327); test: 5HT1A receptor binding assay (3H-8-OH-DPAT, rat striatum membrane); settings: test compound final concentration 10^−5 M; 3H-8-OH-DPAT; rat striatum membrane; read-out: 5HT1A Inhibition rate (%)
T1 construct: Rats were decapitated on ice; from tissue; host or cells: rat brain striatum
T1 sequence (P19327 1-422): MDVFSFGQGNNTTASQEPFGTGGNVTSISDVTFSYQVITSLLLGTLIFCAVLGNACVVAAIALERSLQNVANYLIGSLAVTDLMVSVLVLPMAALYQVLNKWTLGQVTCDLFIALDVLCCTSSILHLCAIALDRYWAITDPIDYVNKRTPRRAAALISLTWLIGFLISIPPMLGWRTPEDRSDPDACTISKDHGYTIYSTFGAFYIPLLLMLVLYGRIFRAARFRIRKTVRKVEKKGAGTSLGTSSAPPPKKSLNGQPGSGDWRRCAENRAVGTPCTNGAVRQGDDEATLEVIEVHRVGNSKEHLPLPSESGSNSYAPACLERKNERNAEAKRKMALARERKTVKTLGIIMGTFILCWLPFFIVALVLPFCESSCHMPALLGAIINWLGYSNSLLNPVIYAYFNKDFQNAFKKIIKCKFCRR
Protocol: Preparation of 5HT1A Membrane
Rats were decapitated on ice. […] Incubation at 37° C. was conducted for 10 min. […] Centrifugation was conducted at 12000 rpm, 4° C. for 20 min. […] Centrifugation was conducted and repeated 3 times.
as §1

[3] = tested on: α1 norepinephrine receptor; test: α1 norepinephrine receptor binding assay (3H-prazosin, rat cortex membrane); settings: test compound final concentration 10^−5 M; 3H-prazosin; rat cortex membrane
Description: Preparation of Receptor Membrane of Norepinephrine
α1 Norepinephrine Receptor Binding Assay

in vivo = settings: both sexes, mouse, in vivo, po
Histamine H1 receptor = Histamine H1 receptor (Rattus norvegicus, UniProt P31390); test: Histamine H1 receptor binding assay (3H-pyrilamine, rat cerebellum membrane); settings: read-out: H1 Inhibition rate (%)
Protocol: The supernatant was discarded to give pellets, and homogenate F was added again to the pellets for washing. Centrifugation was conducted and repeated 3 times.
(2) 100 μL of membrane preparation was added into each reaction tube.

Catalepsy assay in mice = settings: both sexes, Kunming, mouse, in vivo, po, bar test at 30, 60, 90 min
Protocol: Healthy mice of Kunming breed (with half male and half female, (22±2) g) were provided by Qinglongshan Animal Cultivation Center, Nanjing.
Instruments: self-made bar-grabbing apparatus: stainless steel bar in mice box, which was 0.3 cm in diameter and […].
Corresponding solvent double-distilled water was administered intragastrically to the negative control group and the model group, corresponding positive drugs were administered intragastrically to the positive drug groups (a small amount of acetic acid was first added and then double-distilled water was added when dissolving), and corresponding dosages of compounds were administered intragastrically to the compound groups for each dosage, with the volume for intragastric administration as 0.1 ml/10 g. At 30 min, 60 min, 90 min after the intragastric administration, the two forepaws of the mice were gently placed on the bars (which were 20 cm in length, 0.3 cm in diameter, and 5.5 cm above the bench), and the hindpaws of the animals were placed on the bottom of the box. The durations of the mice to maintain the posture with the two forepaws on the bars were recorded, and 30 s of spasticity without moving was considered as the positive response. In the case the forepaws of the mice were not put down persistently, the observation was terminated at 60 s. The numbers of animals with positive response in each of the compound dosage groups were counted.

5HT2C receptor = biological target: T2, 5HT2C receptor (Rattus norvegicus, UniProt P08909); test: 5HT2C receptor binding assay ([3H]-mesulergine, rat striatum membrane); settings: test compound final concentration 10^−5 M; [3H]-mesulergine; rat striatum membrane; read-out: 5HT2C Inhibition rate (%)
T2 construct: from tissue; host or cells: rat brain striatum
T2 sequence (P08909 33-460): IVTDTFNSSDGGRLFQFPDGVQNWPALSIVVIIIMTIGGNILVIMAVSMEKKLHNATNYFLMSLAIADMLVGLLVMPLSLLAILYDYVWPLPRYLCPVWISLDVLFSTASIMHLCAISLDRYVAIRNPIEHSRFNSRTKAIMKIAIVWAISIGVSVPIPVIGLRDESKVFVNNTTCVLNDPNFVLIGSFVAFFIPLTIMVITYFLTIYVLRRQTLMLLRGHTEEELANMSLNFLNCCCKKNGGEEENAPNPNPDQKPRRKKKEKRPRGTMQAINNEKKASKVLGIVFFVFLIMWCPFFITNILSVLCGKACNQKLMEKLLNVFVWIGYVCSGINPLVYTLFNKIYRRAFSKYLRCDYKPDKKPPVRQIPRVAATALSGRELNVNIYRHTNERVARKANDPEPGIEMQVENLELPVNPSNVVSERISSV
Protocol: Preparation of 5HT2C Membrane
Rats were decapitated on ice. […] Centrifugation was conducted.
as §1

5HT2A receptor = 5HT2A receptor (Rattus norvegicus, UniProt P14842); test: 5HT2A receptor binding assay ([3H]-Ketanserin, rat striatum membrane); settings: read-out: 5HT2A Inhibition rate (%)
D3 receptor = biological target: T3, D3 receptor (Homo sapiens, UniProt P35462); test: D3 receptor assay ([3H]-Spiperone, HEK-293 cells); format: binding; settings: test compound final concentration 10 μmol/L; [3H]-Spiperone; HEK-293 cells; read-out: D3 Inhibition rate (%)
T3 construct: expressed in transfected cells; host or cells: HEK-293
Protocol: Then the cells were centrifuged at 1000 rpm for 5 min, the supernatant was discarded, and the cell pellets was collected and stored in a −20° C. fridge for reservation. It was re-suspended with Tris-Cl (pH 7.4) when the assay was performed.
Tris was divided into aliquots by Genetimes Technology Inc.
Competitive binding test for receptors: 20 μl of each of the test compounds and 20 μl of the radioactive ligand together with 160 μl of the receptor proteins were added into the reaction tubes, and the final concentrations of the test compound and the positive drug were all 10 μmol/L. After 50 min of incubation in 30° C. water bath, the tubes were immediately moved to ice bath to terminate the reactions. GF/C glass fiber filter papers were used for rapid sucking filtration on a Millipore cell sample collector, 3 ml of elution buffer (50 mM Tris-HCl, PH 7.4) was applied for 3 times, and microwave was applied for 4-5 min for drying. The filter paper was moved into 0.5 ml centrifuge tube, and 500 μl of liposoluble scintillation cocktail was added. The tubes were allowed to stand still for over 30 min in dark, and the intensities of radioactivity were measured by a counter.

KM mice = test: in vivo
[4] = mice, po, apomorphine 1 mg/kg sc 1 hour after administration
[5] = single intragastric administration in mice, read-out: LD50 (po, mg/kg)
[6] = both, KM, mouse, in vivo, po, 7 days
[7] = single intragastric administration in mice

T3 sequence (P35462 whole entry): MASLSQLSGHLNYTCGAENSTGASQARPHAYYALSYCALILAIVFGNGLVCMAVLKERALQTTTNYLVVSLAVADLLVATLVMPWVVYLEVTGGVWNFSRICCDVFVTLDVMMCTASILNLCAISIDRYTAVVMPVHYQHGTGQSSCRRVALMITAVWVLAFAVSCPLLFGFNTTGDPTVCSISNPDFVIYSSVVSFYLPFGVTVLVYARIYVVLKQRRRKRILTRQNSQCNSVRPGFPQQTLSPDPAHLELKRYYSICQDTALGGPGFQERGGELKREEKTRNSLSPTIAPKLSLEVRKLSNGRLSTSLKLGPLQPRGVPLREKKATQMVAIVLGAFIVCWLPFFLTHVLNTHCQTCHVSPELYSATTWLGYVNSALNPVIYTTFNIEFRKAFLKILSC
Sequence of 5HT2A receptor (P14842 whole entry): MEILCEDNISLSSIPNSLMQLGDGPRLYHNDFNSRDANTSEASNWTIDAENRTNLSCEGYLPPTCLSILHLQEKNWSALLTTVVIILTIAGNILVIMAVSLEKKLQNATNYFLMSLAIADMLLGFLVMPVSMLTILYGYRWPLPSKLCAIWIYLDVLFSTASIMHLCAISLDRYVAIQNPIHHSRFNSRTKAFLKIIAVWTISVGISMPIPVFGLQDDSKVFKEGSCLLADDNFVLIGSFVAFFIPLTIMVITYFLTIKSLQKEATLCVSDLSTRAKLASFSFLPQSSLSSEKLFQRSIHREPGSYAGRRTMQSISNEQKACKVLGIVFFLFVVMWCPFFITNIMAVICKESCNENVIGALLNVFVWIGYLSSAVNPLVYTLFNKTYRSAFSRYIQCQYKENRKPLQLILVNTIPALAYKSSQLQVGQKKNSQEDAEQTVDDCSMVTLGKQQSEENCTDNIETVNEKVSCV
Sequence of Histamine H1 receptor (P31390 whole entry): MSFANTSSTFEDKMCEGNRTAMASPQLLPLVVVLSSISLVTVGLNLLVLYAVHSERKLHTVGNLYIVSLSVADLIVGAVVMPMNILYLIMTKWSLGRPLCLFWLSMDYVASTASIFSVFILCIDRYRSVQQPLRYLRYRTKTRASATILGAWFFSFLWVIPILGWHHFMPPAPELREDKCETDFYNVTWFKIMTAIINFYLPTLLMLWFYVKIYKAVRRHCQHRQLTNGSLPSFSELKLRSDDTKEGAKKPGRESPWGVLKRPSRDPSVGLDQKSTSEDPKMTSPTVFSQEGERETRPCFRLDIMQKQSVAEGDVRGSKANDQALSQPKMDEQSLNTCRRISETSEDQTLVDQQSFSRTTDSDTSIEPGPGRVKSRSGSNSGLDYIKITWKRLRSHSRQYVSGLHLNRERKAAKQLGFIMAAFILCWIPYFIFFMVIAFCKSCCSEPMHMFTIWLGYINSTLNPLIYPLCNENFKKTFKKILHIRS

| Compound | D2 Inhibition rate (%) (D2 receptor) | ED50 (mice of Kunming breed [1]; [4]) [mg/kg] | ED50 (mice of Kunming breed [2]) [mg/kg] | inhibition at 10 µM (5HT1A receptor) [%] | α1 Inhibition rate (%) [3] [%] | inhibition at 10 µM (Histamine H1 receptor) [%] | inhibition at 10 µM (5HT2C receptor) [%] | inhibition at 10 µM (5HT2A receptor) [%] | inhibition at 10 µM (D3 receptor) [%] | further results |
| --- | --- | --- | --- | --- | --- | --- | --- | --- | --- | --- |
| O=C(CCN1CCC(c2noc3cc(F)ccc23)CC1)c1cc2c3c(c1)CCC(=O)N3CCC2 [Compound 2] | 94.33 | 0.11 | 0.2 | 93.9 | 68.75 | 47.9 | 63.9 | 97.9 | 74.9 | LD50 at 7 days (in vivo; [5]): > 2000 mg/kg; ED50 (Catalepsy assay in mice): 3.8 mg/kg |
| O=C1CCc2cc(CCCCN3CCC(c4noc5cc(F)ccc45)CC3)cc3c2N1CCC3 [Compound 7] | 94.32 | 0.44 | 0.92 | 99.2 | 63.69 | 46.4 | 62.2 | 99.4 | 98.1 | LD50 at 7 days (in vivo; [5]): > 2000 mg/kg; ED50 (Catalepsy assay in mice): 24.1 mg/kg |
| O=C(CCCN1CCC(c2noc3cc(F)ccc23)CC1)c1cc2c3c(c1)CCN3C(=O)CC2 [Compound 15] | 103.83 | 0.12 | 0.21 | 103 | 43.69 | 34 | 52.7 | 104 | 99.9 | LD50 at 7 days (in vivo; KM): > 2000 mg/kg; ED50 (Catalepsy assay in mice): 50 mg/kg |
| O=C(CCCN1CCC(c2noc3cc(F)ccc23)CC1)c1cc2c3c(c1F)CCN3C(=O)CC2 [Compound 21] | 92.01 | – | – | 93.3 | 46.78 | 54.3 | 67.9 | 91.1 | 90.1 | – |
| O=C(CCCN1CCC(c2noc3cc(F)ccc23)CC1)c1cc2c3c(c1F)CCC(=O)N3CC2 [Compound 22] | 93.12 | – | – | 91.2 | 53.46 | 45.2 | 76.3 | 90.2 | 91.2 | – |
| O=C1CCc2ccc(OCCCCN3CCN(c4cccc(Cl)c4Cl)CC3)cc2N1 [aripiprazole] | – | 0.66 | 0.12 | – | – | – | – | – | – | LD50 (po, mg/kg) (KM mice; [6]): 93 mg/kg |
| CN1CCN(C2=Nc3cc(Cl)ccc3Nc3ccccc32)CC1 [clozapine] | – | 17.9 | 2.28 | – | – | – | – | – | – | LD50 (po, mg/kg) (KM mice; [7]): 150 mg/kg |
| O=C(CCCN1CCC(O)(c2ccc(Cl)cc2)CC1)c1ccc(F)cc1 [haloperidol] | – | 0.1 | 7.42 | – | – | – | – | – | – | LD50 (po, mg/kg) (KM mice; [7]): 20 mg/kg |
| Cc1cc2c(s1)Nc1ccccc1N=C2N1CCN(C)CC1 [olanzapine] | – | – | – | – | – | – | – | – | – | ED50 (mice of Kunming breed [1]; 1 h): 0.11 mg/kg |
| OCCOCCN1CCN(C2=Nc3ccccc3Sc3ccccc32)CC1 [quetiapine] | – | 2.02 | 10.1 | – | – | – | – | – | – | LD50 (po, mg/kg) (KM mice; [6]): 800 mg/kg |
| Cc1nc2n(c(=O)c1CCN1CCC(c3noc4cc(F)ccc34)CC1)CCCC2 [risperidone] | – | – | – | – | – | – | – | – | – | ED50 (mice of Kunming breed [1]; 1 h): 0.015 mg/kg; effect on apomorphine induced clambering symptoms (in words) (mice of Kunming breed [1]; compared with the model group, mice): effectively improve |
| O=C1Cc2cc(CCN3CCN(c4nsc5ccccc45)CC3)c(Cl)cc2N1 [ziprasidone] | – | 0.37 | 0.56 | – | – | – | – | – | – | LD50 at 7 days (in vivo; [5]): > 2000 mg/kg |
